For assay [1], the target named is AMPK α1β1γ1 (Homo sapiens, UniProt Q13131+Q9Y478). Kind of assay: AMPK activation by A769662, α1β1γ1 isoform (fold activation, FIG. 18). Format: biochemical. Conditions: estimated.
For assay [2], the system named is AMPK 32-subunit-containing isoforms. The assay can be described thus: AMPK activation by A769662, 32-subunit-containing isoforms (FIG. 18). Format: biochemical.
Assay [3] relates to DSS-induced colitis. Kind of assay: DSS-induced colitis (FIGS. 20A-20E). Format: in vivo. Particulars: activation of AMPK with A769662.
For assay [4], the system named is enteroid-derived monolayers (EDMs). The assay can be described thus: TEER across enteroid-derived monolayers challenged with E. coli K12 (FIG. 4B). Conditions: Metformin pre-treatment 1 μM, 18 h; E. coli K12 challenge 8 h. Format: cell-based, mouse and human. How it is done:
(§1) In FIG. 4B, TEER was measured across EDMs that were pre-treated or not with Metformin (1 μM, 18 h) prior to challenge with E. coli K12 strain for 8 h. Drop in TEER (Y axis) is plotted. A representative experiment is shown. […] Activation of the AMPK→GIV stress polarity axis was monitored using pS245GIV (red). […] Arrowheads=separation of TJs and loss of pS245GIV.
(§2) Detailed Methods: Isolation of enteroids and generation of enteroid-derived monolayers (EDM): Crypts are isolated from human colonic biopsies by digesting tissue with Collagenase type I (2 mg/ml; Invitrogen), filtered with a cell strainer and washed with medium (DMEM/F12 with HEPES, 10% FBS), as outlined before. The epithelial units are suspended in […] (BD basement membrane matrix). Cell-[…] suspension (15 μl) are placed at the center of the 24-well plate on ice and placed on the incubator upside-down for polymerization (as shown in FIG. 4A). After 10 min, 500 μl of 50% conditioned media (prepared from L-WRN cells with Wnt3a, R-spondin and Noggin) containing 10 μM Y27632 (ROCK inhibitor) and 10 μM SB431542 (an inhibitor for TGF-β type I receptor) is added to the suspension. The medium is changed every 2 days and the enteroids are expanded and frozen in liquid nitrogen. To prepare EDMs, single cells from enteroids in 5% conditioned media are added to diluted […] (1:30) as done before. […]

The test system is the same in assay [5]. The assay can be described thus: Tight junction integrity by occludin / pS245GIV staining in EDMs challenged with E. coli (FIG. 4C). Format: cell-based, mouse and human. Conditions: Metformin pre-treatment 1 μM, 18 h; E. coli K12 8 h. On the procedure: as §1, §2
Assay [6] has as its system Mouse intestine-derived EDMs. Kind of assay: Tight junction integrity by occludin / pS245GIV staining in EDMs exposed to LPS or H2O2 (FIG. 5). Format: cell-based. Conditions: 1 μM Metformin. On the procedure:
Mouse intestine-derived EDMs were exposed to indicated amounts of LPS (top) or H2O2 (bottom) after treating them or not with 1 μM Metformin. Fixed monolayers were assessed for TJs by staining for occludin (a TJ marker; green grey scales). Activation of the AMPK→GIV stress polarity axis was monitored using pS245GIV (red grey scales). […] TEER measurements agree with IF findings (not shown).

The subject of assay [7] is AMPK→pS245GIV axis. The assay can be described thus: Activity of the AMPK→pS245GIV axis in human EDMs from non-diseased aged colons. Format: cell-based.
For assay [8], the system named is CLDN2. The assay can be described thus: CLDN2 biomarker in response to IBD-associated microbes (FIG. 15). Format: cell-based.
For assay [9], the system named is high-fat fed mice. Conditions: cited from earlier work.

Entries after “also recorded” stand apart in the source; their conditions may differ.

The values that follow come from patent publication US20210128500A1, “Methods of Treating Conditions Associated with Leaky Gut Barrier” (The Regents of the University of California, priority 2017, published 2021).

Sequence of AMPK α1β1γ1 (Q13131 whole entry, canonical isoform): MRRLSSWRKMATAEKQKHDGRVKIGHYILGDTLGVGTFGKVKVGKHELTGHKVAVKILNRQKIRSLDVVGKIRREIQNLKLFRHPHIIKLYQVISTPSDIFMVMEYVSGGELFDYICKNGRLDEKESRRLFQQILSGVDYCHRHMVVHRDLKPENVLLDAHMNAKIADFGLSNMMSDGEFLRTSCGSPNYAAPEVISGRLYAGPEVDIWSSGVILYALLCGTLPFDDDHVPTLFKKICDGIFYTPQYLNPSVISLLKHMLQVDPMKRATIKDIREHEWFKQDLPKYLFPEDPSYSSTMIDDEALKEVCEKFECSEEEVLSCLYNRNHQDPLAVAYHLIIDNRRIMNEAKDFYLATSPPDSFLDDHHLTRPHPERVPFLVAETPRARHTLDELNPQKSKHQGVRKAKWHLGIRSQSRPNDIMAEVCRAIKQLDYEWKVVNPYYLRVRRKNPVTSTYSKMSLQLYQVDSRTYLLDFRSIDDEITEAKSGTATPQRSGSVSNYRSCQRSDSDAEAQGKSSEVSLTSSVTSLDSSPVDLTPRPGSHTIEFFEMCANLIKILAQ
Sequence of AMPK α1β1γ1 (Q9Y478 whole entry, canonical isoform): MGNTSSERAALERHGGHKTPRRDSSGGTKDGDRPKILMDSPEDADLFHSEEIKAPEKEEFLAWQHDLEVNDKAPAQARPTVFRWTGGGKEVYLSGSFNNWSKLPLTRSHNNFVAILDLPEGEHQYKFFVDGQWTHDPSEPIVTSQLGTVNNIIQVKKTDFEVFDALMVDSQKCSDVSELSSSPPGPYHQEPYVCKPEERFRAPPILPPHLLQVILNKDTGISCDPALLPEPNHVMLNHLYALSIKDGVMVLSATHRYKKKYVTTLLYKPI
Sequence of AMPK α1β1γ1 (P54619 whole entry partner, canonical isoform): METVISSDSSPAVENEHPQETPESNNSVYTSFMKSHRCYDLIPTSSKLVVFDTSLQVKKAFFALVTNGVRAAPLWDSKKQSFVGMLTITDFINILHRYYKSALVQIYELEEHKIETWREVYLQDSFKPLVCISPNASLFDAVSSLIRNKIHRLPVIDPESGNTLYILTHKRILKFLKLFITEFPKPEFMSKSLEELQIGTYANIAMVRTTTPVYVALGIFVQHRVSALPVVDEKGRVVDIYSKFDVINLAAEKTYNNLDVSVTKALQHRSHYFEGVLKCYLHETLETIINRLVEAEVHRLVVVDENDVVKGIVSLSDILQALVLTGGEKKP

As for `N#Cc1c(O)c2c(-c3ccc(-c4ccccc4O)cc3)csc2[nH]c1=O` [A769662], the half-maximal activity concentration (AC50) in assay [1] is 72.2 nM; in assay [2] it was more than 40000 nM. For the same compound, in assay [3], the colon length entry is recorded as “preserves colon length”. Also, in [3], the “healing of colonic mucosa” value is listed as “heals colonic mucosa”.
With `CN(C)C(=N)N=C(N)N` [Metformin], in assay [4], the “Drop in TEER” value is “significantly reduced the drop in TEER”. The “TJ preservation (occludin pattern)” value in [5], in assay [6] (H2O2 stress) and in assay [6] (LPS stress) was “TJs were better preserved; also recorded: protects TJs against stress-induced collapse” throughout. Besides, in [7], the “activity of the AMPK→pS245GIV axis” value is reported as “can be increased”. Further, in assay [8], the “increase in the CLDN2 biomarker” value was “prevents the increase”. For the same compound, the endotoxemia result in [9] was “attenuates endotoxemia”. Moreover, in assay [9], the gut barrier integrity entry is recorded as “enhances gut barrier integrity”. In addition, the insulin signaling entry in assay [9] is “enhances insulin signaling”.

A word on the AC50: it is the concentration at which the activity in the assay is half-maximal.
